For five compounds, IC50 results are on record in publication doi:10.1101/2022.06.11.495772v2 (biorxiv, 2022).

A word on the IC50: it is the point on the concentration scale where inhibition reaches its midpoint. A lower IC50 goes with greater potency in that assay.

Square brackets hold non-standard residues; d marks the D form. Peptide text beside a SMILES is read from it. NMeY = CN[C@@H](Cc1ccc(O)cc1)C(=O)O; NMeT = CN[C@H](C(=O)O)[C@@H](C)O; NMeL = CN[C@@H](CC(C)C)C(=O)O

The target in one experiment is HsMetAP1 (Homo sapiens, UniProt P53582). In words: biochemical.
The target of another experiment is HsMetAP2 (Homo sapiens, UniProt P50579). In words: biochemical.
Sequence of HsMetAP2 (P50579 2-478): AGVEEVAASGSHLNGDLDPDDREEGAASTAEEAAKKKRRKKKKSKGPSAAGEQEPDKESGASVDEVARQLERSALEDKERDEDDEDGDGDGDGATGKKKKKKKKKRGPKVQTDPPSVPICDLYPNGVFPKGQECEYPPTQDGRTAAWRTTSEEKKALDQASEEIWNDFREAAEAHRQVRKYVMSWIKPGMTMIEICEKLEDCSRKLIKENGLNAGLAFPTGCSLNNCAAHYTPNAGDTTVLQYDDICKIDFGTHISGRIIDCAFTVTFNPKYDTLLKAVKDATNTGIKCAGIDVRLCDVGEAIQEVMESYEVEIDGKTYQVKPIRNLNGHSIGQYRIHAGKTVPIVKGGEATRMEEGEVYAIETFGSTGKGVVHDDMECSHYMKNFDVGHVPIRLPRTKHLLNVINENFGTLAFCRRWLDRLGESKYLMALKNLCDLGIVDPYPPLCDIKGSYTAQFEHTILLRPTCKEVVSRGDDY
Experiment [1] addresses T1, EcMetAP (Escherichia coli, UniProt P0AE18).
T1 sequence (P0AE18 2-264): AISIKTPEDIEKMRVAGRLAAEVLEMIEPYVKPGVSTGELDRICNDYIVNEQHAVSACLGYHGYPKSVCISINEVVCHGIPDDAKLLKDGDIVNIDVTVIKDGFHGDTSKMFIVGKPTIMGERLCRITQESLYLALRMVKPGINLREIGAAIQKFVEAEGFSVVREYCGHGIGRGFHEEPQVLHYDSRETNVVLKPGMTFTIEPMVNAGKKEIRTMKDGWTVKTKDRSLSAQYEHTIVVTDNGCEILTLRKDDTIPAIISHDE
In words: biochemical.

Experiment [2] deals with T1, EcMetAP. In words: coupled fluorogenic Met-Gly-Pro-AMC / DPPIV assay. In kind it is biochemical.

On to `CO[C@@H]1[C@H](OC(=O)NC(=O)CCl)CC[C@]2(CO2)[C@H]1[C@@]1(C)O[C@@H]1CC=C(C)C` [TNP-470], for which the IC50 at HsMetAP1 is over 2000 µM; at HsMetAP2, 0.69 ± 0.05 µM; against EcMetAP [1] it was over 2000 µM.
For `CNC(Cc1ccc(O)cc1)C(=O)N(C)C1C(=O)N(C)C(CC(C)C)C(=O)OC(C)C(N(C)C(=O)C(Cc2ccc(O)cc2)N(C)C)C(=O)N(C)C(CC(C)C)C(=O)OC1C` (stereo not shown) [metapeptin B], the IC50 is about 0.5 µM against EcMetAP [2], 49.7 ± 3.98 µM at HsMetAP1, over 2000 µM against HsMetAP2 and 0.47 ± 0.29 µM at EcMetAP [1].
In turn, `CCCCCCCCCCCCCC(=O)O[C@H]1CC[C@H](NC(=O)[C@H](OC)[C@H](O)[C@@H](O)[C@H](O)/C=C/C(C)C)C(=O)N(C)C1` [bengamide B] gave an IC50 against EcMetAP [1] of over 2000 µM.
As to `CC(C)CC1C(=O)OC(C)C(N(C)C(=O)C(Cc2ccc(O)cc2)N(C)C)C(=O)N(C)C(CC(C)C)C(=O)OC(C)C(N(C)C(=O)C(Cc2ccc(O)cc2)N(C)C)C(=O)N1C` (stereo not shown) [metapeptin A], the IC50 at HsMetAP1, on HsMetAP2 and against EcMetAP [1] was over 2000 µM each time.
Take `CN[C@@H](Cc1ccc(O)cc1)C(=O)N(C)[C@H](C(=O)N(C)[C@@H](CC(C)C)C(=O)OC)[C@@H](C)OC` [NMe-Monomer] (H-[NMeY]-[NMeT](Me)-[NMeL]-OMe): the half-maximal inhibitory concentration (IC50) against HsMetAP1 and on HsMetAP2 was over 2000 µM each time.
